Assay results reported in patent US8703784B2, “Substituted pyrazolo[1,5-a]pyrido[3.2-e]pyrimidin-6-one inhibitors of mammalian target of rapamycin” (Merck Sharp & Dohme Corp., priority 2010, dated 2014).
pIC50: −log10 of the molar value.

Molecular target: mTOR enzyme (Homo sapiens, UniProt P42345)
Experiment: mTOR Kinase Assay
Assay type: biochemical
Details: 5 μM ATP, 0.1 μM GSTS6K substrate
Description: The mTOR assay buffer contains 10 mM hepes (pH 7.4), 50 mM NaCl, 100 μg/ml BSA, 50 mM B-glycerophosphate, 10 mM MnCl2 and 0.5 mM DTT. 20 ng of mTOR enzyme is preincubated with the compound for 10 minutes. 5 μM ATP and 0.1 μM GSTS6K is added. The reaction is incubated for one hour at 30° C. Anti phospho p70S6K (about 1.7 ng/well) and anti GSTXL665 (1:1 Ratio with the substrate GSTS6K) are added after incubating. The plates are read at least 2 hours after adding the anti phospho p70S6K and the anti GSTXL665.
Dose-response curves were plotted from inhibition data generated, each in duplicate, from 8 point serial dilutions of inhibitory compounds. Concentration of compound was plotted against % kinase activity, calculated by CPM of treated samples divided by CPM of untreated samples. To generate IC50 values, the dose-response curves were then fitted to a standard sigmoidal curve and IC50 values were derived by nonlinear regression analysis.

| Molecule | pIC50 |
| --- | --- |
| O=C1CCNc2c1c(C1CCN(C(=O)CO)CC1)nc1c(-c3ccc(-c4ccccc4)nc3)cnn21 [Example 16] | > 8.00 |
| Cn1ccc(-c2ccc(-c3cnn4c5c(c(C6CC7CCC(C6)N7C(=O)C(C)(CO)CO)nc34)C(=O)CCN5)cn2)n1 (stereo not drawn) [Example 5] | > 8.00 |
| O=C1CCNc2c1c(C1CCN(C(=O)c3nnc[nH]3)CC1)nc1c(-c3ccc(-c4ccccc4)nc3)cnn21 [Example 15, 5-(1-(4H-1,2,4-triazole-3-carbonyl)piperidin-4-yl)-3-(6-phenylpyridin-3-yl)-8,9-dihydropyrazolo[1,5-a]pyrido[3,2-e]pyrimidin-6(7H)-one] | > 8.00 |
| O=C(c1nnc[nH]1)N1C2CCC1CC(c1nc3c(-c4ccc(-c5ccccc5)nc4)cnn3c3[nH]ccc(=O)c13)C2 (stereo not drawn) [Example 2, 5-(8-(4H-1,2,4-triazole-3-carbonyl)-8-azabicyclo[3.2.1]octan-3-yl)-3-(6-phenylpyridin-3-yl)pyrazolo[1,5-a]pyrido[3,2-e]pyrimidin-6(9H)-one] | > 8.00 |
| COCCO[C@]1(C(=O)O)CC[C@@H](c2nc3c(-c4cnn(-c5ccccc5)c4)cnn3c3c2C(=O)CCN3)CC1 [Example 25, (1r,4r)-1-(2-methoxyethoxy)-4-(6-oxo-3-(1-phenyl-1H-pyrazol-4-yl)-6,7,8,9-tetrahydropyrazolo[1,5-a]pyrido[3,2-e]pyrimidin-5-yl)cyclohexanecarboxylic acid] | > 8.00 |
| CC(CO)(CO)C(=O)N1CCC(c2nc3c(-c4ccc(-c5ccccc5)nc4)cnn3c3c2C(=O)CCN3)CC1 [Example 18] | > 8.00 |
| O=C1CCNc2c1c(C1C[C@H]3COC[C@@H](C1)N3C(=O)c1nc[nH]n1)nc1c(-c3ccc(-c4ccccc4)nc3)cnn21 (stereo partly drawn) [Example 27, 5-((1R,5S)-9-(1H-1,2,4-triazole-3-carbonyl)-3-oxa-9-azabicyclo[3.3.1]nonan-7-yl)-3-(6-phenylpyridin-3-yl)-8,9-dihydropyrazolo[1,5-a]pyrido[3,2-e]pyrimidin-6(7H)-one] | > 8.00 |
| COc1ccc(-c2ccc(-c3cnn4c5c(c(C6CC7CCC(C6)N7C(=O)C(C)(CO)CO)nc34)C(=O)CCN5)cn2)cc1F (stereo not drawn) [Example 8] | > 8.00 |
| O=C1CCNc2c1c(C1CC3CCC(C1)N3C(=O)c1nnc[nH]1)nc1c(-c3ccc(-c4ccccn4)nc3)cnn21 (stereo not drawn) [Example 12] | > 8.00 |
| O=C1CCNc2c1c(N1CCOCC1)nc1c(-c3cnc4ccccc4c3)cnn21 [Example 19, 5-morpholino-3-(quinolin-3-yl)-8,9-dihydropyrazolo[1,5-a]pyrido[3,2-e]pyrimidin-6(7H)-one] | 7.00 to 8.00 |
| O=C1CCNc2c1c(C1CCS(=O)(=O)CC1)nc1c(-c3cnc4ccccc4c3)cnn21 [Example 24, 3-(quinolin-3-yl)-5-(tetrahydro-1,1-dioxido-2H-thiopyran-4-yl)-8,9-dihydropyrazolo[1,5-a]pyrido[3,2-e]pyrimidin-6(7H)-one] | 7.00 to 8.00 |
| CC(NC1CCOCC1)c1nc2c(-c3cnc4ccc(F)cc4c3)cnn2c2c1C(=O)CCN2 (stereo not drawn) [Example 28, 3-(6-fluoroquinolin-3-yl)-5-(1-(tetrahydro-2H-pyran-4-ylamino)ethyl)-8,9-dihydropyrazolo[1,5-a]pyrido[3,2-e]pyrimidin-6(7H)-one] | < 7.00 |
| O=C1CCNc2c1c(C1CC3CCC(C1)N3C(=O)c1nnc[nH]1)nc1c(-c3ccc(-c4ccccc4)nc3)cnn21 (stereo not drawn) [Example 1, 5-(8-(4H-1,2,4-triazole-3-carbonyl)-8-azabicyclo[3.2.1]octan-3-yl)-3-(6-phenylpyridin-3-yl)-8,9-dihydropyrazolo[1,5-a]pyrido[3,2-e]pyrimidin-6(7H)-one] | > 8.00 |
| O=C1CCNc2c1c(N1CCS(=O)(=O)CC1)nc1c(-c3ccc(-c4ccccc4)nc3)cnn21 [Example 22] | > 8.00 |
| (1r,4r)-1-(2-methoxyethoxy)-4-(3-(6-(1-methyl-1H-pyrazol-3-yl)pyridin-3-yl)-6-oxo-6,7,8,9-tetrahydropyrazolo[1,5-a]pyrido[3,2-e]pyrimidin-5-yl)cyclohexanecarboxylic acid [Example 26] | > 8.00 |
| C[C@@H](O)C(=O)N1CCC(c2nc3c(-c4ccc(-c5ccccc5)nc4)cnn3c3c2C(=O)CCN3)CC1 [Example 17] | > 8.00 |
| O=C1CCNc2c1c(N1CCS(=O)(=O)CC1)nc1c(-c3cnc4ccc(F)cc4c3)cnn21 [Example 21] | > 8.00 |
| Cn1ccc(-c2ccc(-c3cnn4c5c(c(C6CC7CCC(C6)N7C(=O)c6nnc[nH]6)nc34)C(=O)CCN5)cn2)n1 (stereo not drawn) [Example 4] | > 8.00 |
| C[C@@H]1CN(c2nc3c(-c4ccc(-c5ccccc5)nc4)cnn3c3c2C(=O)CCN3)C[C@H](C)O1 [Example 20, 5-((2R,6S)-2,6-dimethylmorpholino)-3-(6-phenylpyridin-3-yl)-8,9-dihydropyrazolo[1,5-a]pyrido[3,2-e]pyrimidin-6(7H)-one] | 7.00 to 8.00 |
| O=C1CCNc2c1c(C1CCS(=O)(=O)CC1)nc1c(-c3ccc(-c4ccccc4)nc3)cnn21 [Example 23, 3-(6-phenylpyridin-3-yl)-5-(tetrahydro-1,1-dioxido-2H-thiopyran-4-yl)-8,9-dihydropyrazolo[1,5-a]pyrido[3,2-e]pyrimidin-6(7H)-one] | > 8.00 |
| COc1ccc(-c2ccc(-c3cnn4c5c(c(C6CC7CCC(C6)N7C(=O)CO)nc34)C(=O)CCN5)cn2)cc1F (stereo not drawn) [Example 6] | > 8.00 |
